According to paper PMC4459817, “Vasculotide reduces endothelial permeability and tumor cell extravasation in the absence of binding to or agonistic activation of Tie2” (EMBO Molecular Medicine, 2015):
One block for each molecule: values may come before it.

Legend:
[1] = system: LM2-4luc experimental metastasis; settings: SU prior to IV inoculation of LM2-4luc; ref Ebos et al, 2009; cited from earlier work
Text: Here, we tested whether concurrent VT therapy can be used to reverse this pro-metastatic potential of SU in the same model. LM2-4^luc is a metastatically aggressive luciferase-tagged derivative of the MDA-MB-231 cell line that was derived through serial in vivo selection ...

[2] = molecular target: T1, mouse Tie2-Fc (mTie2-Fc) (Mus musculus, UniProt Q02858); experiment: SPR binding to mouse Tie2-Fc; settings: mouse Tie2-Fc (low- and high-density), 37°C, pH 7.4, Supplementary Fig S3, listed as VT
T1 construct: Purified human or mouse Tie2-Fc (i.e., Fc-conjugated extracellular domains of Tie2); purchased R&D Systems 762-T2-100
T1 sequence (Q02858 23-746 limits assumed): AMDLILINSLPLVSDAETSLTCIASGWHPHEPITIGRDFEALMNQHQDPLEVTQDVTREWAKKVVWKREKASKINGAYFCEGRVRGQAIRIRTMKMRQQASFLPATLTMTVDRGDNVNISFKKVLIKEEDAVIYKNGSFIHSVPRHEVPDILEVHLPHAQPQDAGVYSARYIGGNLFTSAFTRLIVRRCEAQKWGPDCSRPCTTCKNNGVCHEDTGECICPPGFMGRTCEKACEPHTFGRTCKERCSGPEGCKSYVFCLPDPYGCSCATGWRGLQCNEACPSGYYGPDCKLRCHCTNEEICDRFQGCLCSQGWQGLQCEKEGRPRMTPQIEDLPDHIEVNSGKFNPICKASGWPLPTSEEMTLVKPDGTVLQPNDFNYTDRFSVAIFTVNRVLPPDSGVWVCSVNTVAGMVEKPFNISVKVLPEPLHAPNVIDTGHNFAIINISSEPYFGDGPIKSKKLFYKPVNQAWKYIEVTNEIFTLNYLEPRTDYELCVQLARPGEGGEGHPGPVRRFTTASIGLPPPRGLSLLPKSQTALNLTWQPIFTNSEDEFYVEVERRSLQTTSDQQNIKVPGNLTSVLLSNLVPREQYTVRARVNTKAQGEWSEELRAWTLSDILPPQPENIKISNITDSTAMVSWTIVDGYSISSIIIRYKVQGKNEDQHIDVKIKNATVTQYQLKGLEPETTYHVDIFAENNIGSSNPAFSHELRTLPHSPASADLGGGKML
Text: To better understand the difficulties we had in observing Tie2 activation by VT, we sought to characterize the binding affinity and kinetics of VT to Tie2. Purified human or mouse Tie2-Fc (i.e., Fc-conjugated extracellular domains of Tie2) were first coupled to protein A sepharose beads for pull-down experiments (Fig9A and B) or immobilized on a Biacore CM5 sensor chip for surface plasmon resonance (SPR) experiments (Fig9C and Supplementary Fig S3). […]
9. Tie2 Receptor-Binding Assays
Vasculotide (VT) was manufactured by Bachem UK Ltd. T7c (CHHHRHSF) was synthesized by Genscript (Piscataway, NJ, USA). PEG-Cys consists of a single cysteine reacted to each of the 4 arms of PEG-maleimide (Sunbright PTE-100MA, NOF Corporation, Tokyo, Japan). BowAng1 (Ang1-Fd-Fc-Fd) was made and provided by Regeneron Pharmaceuticals, Inc. (Tarrytown, NY, USA). COMP-Ang1 was purified in the Kerbel lab from serum-free culture media conditioned by an engineered CHO cell line provided by Dr. Gou Young Koh (KAIST), according to published protocols (Hwang et al, 2008).
Recombinant human Angiopoietin-1 (rhAng1) and Vascular Endothelial Growth Factor ( rhVEGF) were […]
purchased from R&D Systems. […]
(structural/molecular weight control for VT), and 40 μL of supernatant (7% of residual/unbound ligand) – were similarly boiled in SDS sample buffer. […]
Binding analysis were performed by exposure of immobilized mTie2-Fc to the analytes diluted in HBS-EP (0.01M HEPES pH 7.4, 0.15M NaCl, 3mM EDTA, 0.005% v/v Tween-20), which was supplemented with 1mg/mL carboxymethyl dextran (NSB reducer, GE Healthcare) to reduce non-specific binding to the sensor chip. […] To quantitatively determine the kinetic properties of the interaction (KD, kd, ka) and avoid mass transport limitations, mTie2-Fc and hTie2-Fc were immobilized at low density (1,000-1,200RU) onto separate flow cells of the CM5 chip using amine coupling chemistry. […] All data were analysed using BIA Evaluation Software 2.0 (GE Healthcare) to calculate kd, ka and KD using the 1:1 ligand binding model. […]

[3] = molecular target: T2, human Tie2-Fc (Fc-conjugated extracellular domain of Tie2) (human, UniProt Q02763 23-748); experiment: SPR
T2 chain: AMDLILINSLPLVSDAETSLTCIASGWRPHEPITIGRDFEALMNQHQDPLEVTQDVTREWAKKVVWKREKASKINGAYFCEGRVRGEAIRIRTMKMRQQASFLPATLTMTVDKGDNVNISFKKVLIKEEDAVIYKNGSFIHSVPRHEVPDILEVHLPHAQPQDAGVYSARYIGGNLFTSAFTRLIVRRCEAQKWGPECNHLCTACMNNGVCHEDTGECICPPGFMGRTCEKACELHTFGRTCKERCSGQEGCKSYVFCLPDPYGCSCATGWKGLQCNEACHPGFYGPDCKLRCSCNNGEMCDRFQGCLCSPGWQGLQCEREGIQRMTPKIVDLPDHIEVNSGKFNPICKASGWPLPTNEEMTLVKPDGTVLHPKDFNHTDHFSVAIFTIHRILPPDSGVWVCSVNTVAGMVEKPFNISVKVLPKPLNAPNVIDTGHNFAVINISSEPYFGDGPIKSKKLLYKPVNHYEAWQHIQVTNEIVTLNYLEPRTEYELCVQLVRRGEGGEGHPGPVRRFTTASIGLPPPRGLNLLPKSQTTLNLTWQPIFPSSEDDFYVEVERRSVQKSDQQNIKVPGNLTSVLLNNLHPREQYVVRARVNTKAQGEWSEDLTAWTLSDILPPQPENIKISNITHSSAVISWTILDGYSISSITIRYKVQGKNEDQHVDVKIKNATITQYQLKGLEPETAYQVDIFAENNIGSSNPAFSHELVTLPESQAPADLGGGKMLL

Molecule: CCN(CC)CCNC(=O)c1c(C)[nH]c(/C=C2\C(=O)Nc3ccc(F)cc32)c1C [sunitinib, reference compound]
- experimental metastasis, especially in the lungs [1]: promotion of experimental metastasis, especially in the lungs

Molecule: CHHHRHSF [Vasculotide, 4-armed maleimide-functionalized polyethylene glycol (PEG) backbone to link together four cysteine-capped T7 peptides, that is, CHHHRHSF]
- binding to Tie2-Fc [2]: no binding to Tie2-Fc was detectable

- koff [3]: 0.00029 s⁻¹
B1: recombinant human Ang1 (rhAng1) (ligand, UniProt Q15389 16-498, looked up)
chain: HIGCSNQRRSPENSGRRYNRIQHGQCAYTFILPEHDGNCRESTTDQYNTNALQRDAPHVEPDFSSQKLQHLEHVMENYTQWLQKLENYIVENMKSEMAQIQQNAVQNHTATMLEIGTSLLSQTAEQTRKLTDVETQVLNQTSRLEIQLLENSLSTYKLEKQLLQQTNEILKIHEKNSLLEHKILEMEGKHKEELDTLKEEKENLQGLVTRQTYIIQELEKQLNRATTNNSVLQKQQLELMDTVHNLVNLCTKEGVLLKGGKREEEKPFRDCADVYQAGFNKSGIYTIYINNMPEPKKVFCNMDVNGGGWTVIQHREDGSLDFQRGWKEYKMGFGNPSGEYWLGNEFIFAITSQRQYMLRIELMDWEGNRAYSQYDRFHIGNEKQNYRLYLKGHTGTAGKQSSLILHGADFSTKDADNDNCMCKCALMLTGGWWFDACGPSNLNGMFYTAGQNHGKLNGIKWHYFKGPSYSLRSTTMMIRPLDF
notes: angiopoietin-1, human, recombinant; also called angiopoietin-1; source: bought: R&D Systems (named for the Boyden chamber experiments)
